Patent publication US20100298141A1, “SUBSTITUTED PYRIDINE N-OXIDE HERBICIDES” (E. I. DU PONT DE NEMOURS AND COMPANY, priority 2007, published 2010)

Key:
[1] = tested on: wheat; experiment: Test A pre-/postemergence greenhouse test; format: in vivo, Triticum aestivum; details: for Plant response rating, Wheat: 0 to 100 scale where 0 is no effect and 100 is complete control; for Wheat plant response rating: 0 to 100 scale
Summary of the method: (§1)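 Test compounds in non-phytotoxic solvent with surfactant were applied as a preemergence soil spray to seeded loam/sand pots and, concurrently, postemergence to plants at 2–10 cm, one- to two-leaf stage. About ten days in greenhouse, then injury visually rated against untreated controls.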

[2] = tested on: duck salad; experiment: Test C flooded paddy test; format: in vivo, Heteranthera limosa; details: Flood
Summary of the method: (§2)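 Under a constant 3 cm flood, test compounds went directly into the paddy water. Following 13 to 15 days of greenhouse growth, treated species and controls were compared by eye.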

[3] = tested on: velvetleaf; experiment: Test A pre-/postemergence greenhouse test; format: in vivo, Abutilon theophrasti; details: for Plant response rating, Velvetleaf: 0 to 100 scale where 0 is no effect and 100 is complete control; for Velvetleaf plant response rating: 0 to 100 scale
Summary of the method: as §1

[4] = tested on: giant foxtail; experiment: Test A pre-/postemergence greenhouse test; format: in vivo, Setaria faberi; details: for Plant response rating, Foxtail, Giant: 0 to 100 scale where 0 is no effect and 100 is complete control; for Foxtail, Giant plant response rating: 0 to 100 scale
Summary of the method: as §1

[5] = tested on: umbrella sedge; experiment: Test C flooded paddy test; format: in vivo, Cyperus difformis; details: Flood
Summary of the method: as §2

[6] = tested on: morningglory; experiment: Test A pre-/postemergence greenhouse test; format: in vivo, Ipomoea spp.; details: for Plant response rating, Morningglory: 0 to 100 scale where 0 is no effect and 100 is complete control; for Morningglory plant response rating: 0 to 100 scale
Summary of the method: as §1

[7] = tested on: barnyardgrass; experiment: Test A pre-/postemergence greenhouse test; format: in vivo, Echinochloa crus-galli; details: for Plant response rating, Barnyardgrass: 0 to 100 scale where 0 is no effect and 100 is complete control; for Barnyardgrass plant response rating: 0 to 100 scale
Summary of the method: as §1

[8] = tested on: redroot pigweed; experiment: Test A pre-/postemergence greenhouse test; format: in vivo, Amaranthus retroflexus; details: for Plant response rating, Pigweed: 0 to 100 scale where 0 is no effect and 100 is complete control; for Pigweed plant response rating: 0 to 100 scale
Summary of the method: as §1

[9] = tested on: crabgrass; experiment: Test A pre-/postemergence greenhouse test; format: in vivo, Digitaria sanguinalis; details: for Plant response rating, Crabgrass, Large: 0 to 100 scale where 0 is no effect and 100 is complete control; for Crabgrass, Large plant response rating: 0 to 100 scale
Summary of the method: as §1

[10] = tested on: corn; experiment: Test A pre-/postemergence greenhouse test; format: in vivo, Zea mays; details: for Plant response rating, Corn: 0 to 100 scale where 0 is no effect and 100 is complete control; for Corn plant response rating: 0 to 100 scale
Summary of the method: as §1

[11] = tested on: barnyardgrass; experiment: Test C flooded paddy test; format: in vivo, Echinochloa crus-galli; details: Flood
Summary of the method: as §2

[12] = tested on: rice; experiment: Test C flooded paddy test; format: in vivo, Oryza sativa; details: Flood
Summary of the method: as §2

[13] = Postemergence, 500 g ai/ha, 0 is no effect, 100 is complete control
[14] = Preemergence, 125 g ai/ha, 0 no effect, 100 complete control
[15] = 62 g ai/ha, scale 0 to 100 (0 no effect, 100 complete control)
[16] = 250 g ai/ha, scale 0 to 100, 0 no effect, 100 complete control, 13 to 15 days
[17] = Postemergence, 125 g ai/ha, 0 is no effect, 100 is complete control
[18] = 31 g ai/ha, scale 0 to 100 (0 no effect, 100 complete control)
[19] = 62 g ai/ha, scale 0 to 100, 0 no effect, 100 complete control, 13 to 15 days
[20] = 125 g ai/ha, scale 0 to 100, 0 no effect, 100 complete control, 13 to 15 days
[21] = 250 g ai/ha, scale 0 to 100 (0 no effect, 100 complete control)

In the case of Cn1nc(C(F)(F)F)c(CS(=O)(=O)c2cc(C(C)(C)C)cc[n+]2[O-])c1OCC(F)(F)F [Compound 72], the “Plant response rating, Wheat” value ([1]; Postemergence, 125 g ai/ha) is reported as 0, the “Wheat plant response rating” value [1, 13] is reported as 60 and the “Wheat plant response rating” value [1, 14] is reported as 30. The “Plant response rating, Wheat” value ([1]; Preemergence, 500 g ai/ha) was 70, the “Plant response rating, Ducksalad” value [2, 15] was 0 and the “Plant response rating, Ducksalad” value [2, 16] was 75. For the same compound, the “Plant response rating, Velvetleaf” value ([3]; Postemergence, 125 g ai/ha) was 0, the “Velvetleaf plant response rating” value [3, 13] was 40 and the “Velvetleaf plant response rating” value [3, 14] was 0. For the same compound, the “Plant response rating, Velvetleaf” value ([3]; Preemergence, 500 g ai/ha) was 90, the “Plant response rating, Foxtail, Giant” value ([4]; Postemergence, 125 g ai/ha) was 10 and the “Foxtail, Giant plant response rating” value [4, 13] was 60. For the same compound, the “Foxtail, Giant plant response rating” value [4, 14] was 100, the “Plant response rating, Foxtail, Giant” value ([4]; Preemergence, 500 g ai/ha) was 100 and the “Plant response rating, Sedge, Umbrella” value [5, 15] was 0. The “Plant response rating, Sedge, Umbrella” value [5, 16] was 70, the “Plant response rating, Morningglory” value ([6]; Postemergence, 125 g ai/ha) was 0 and the “Morningglory plant response rating” value [6, 13] was 40. For the same compound, the “Morningglory plant response rating” value [6, 14] was 0, the “Plant response rating, Morningglory” value ([6]; Preemergence, 500 g ai/ha) was 60 and the “Plant response rating, Barnyardgrass” value ([7]; Postemergence, 125 g ai/ha) was 0. For the same compound, the “Barnyardgrass plant response rating” value [7, 13] was 60, the “Barnyardgrass plant response rating” value [7, 14] was 40 and the “Plant response rating, Barnyardgrass” value ([7]; Preemergence, 500 g ai/ha) was 100. The “Plant response rating, Pigweed” value ([8]; Postemergence, 125 g ai/ha) was 20, the “Pigweed plant response rating” value [8, 13] was 60 and the “Pigweed plant response rating” value [8, 14] was 60. For the same compound, the “Plant response rating, Pigweed” value ([8]; Preemergence, 500 g ai/ha) was 90, the “Plant response rating, Crabgrass, Large” value ([9]; Postemergence, 125 g ai/ha) was 0 and the “Crabgrass, Large plant response rating” value [9, 13] was 60. For the same compound, the “Crabgrass, Large plant response rating” value [9, 14] was 80, the “Plant response rating, Crabgrass, Large” value ([9]; Preemergence, 500 g ai/ha) was 100 and the “Plant response rating, Corn” value ([10]; Postemergence, 125 g ai/ha) was 0. The “Corn plant response rating” value [10, 13] was 0, the “Corn plant response rating” value [10, 14] was 0 and the “Plant response rating, Corn” value ([10]; Preemergence, 500 g ai/ha) was 50. For the same compound, the “Plant response rating, Barnyardgrass” value [11, 15] was 0, the “Plant response rating, Barnyardgrass” value [11, 16] was 0 and the “Plant response rating, Rice” value [12, 15] was 0. The “Plant response rating, Rice” value [12, 16] was 0.

With Cn1nc(C(F)(F)F)c(CS(=O)(=O)c2ccc(Br)c[n+]2[O-])c1OC(F)F [Compound 13] the “Wheat plant response rating” value [1, 17] was 0, the “Wheat plant response rating” value [1, 13] was 0 and the “Wheat plant response rating” value [1, 14] was 0. For the same compound, the “Plant response rating, Wheat” value ([1]; Preemergence, 500 g ai/ha) was 0, the “Plant response rating, Ducksalad” value [2, 18] was 0 and the “Plant response rating, Ducksalad” value [2, 19] was 0. The “Plant response rating, Ducksalad” value [2, 20] was 0, the “Plant response rating, Ducksalad” value [2, 21] was 95 and the “Velvetleaf plant response rating” value [3, 17] was 0. For the same compound, the “Velvetleaf plant response rating” value [3, 13] was 0, the “Velvetleaf plant response rating” value [3, 14] was 0 and the “Plant response rating, Velvetleaf” value ([3]; Preemergence, 500 g ai/ha) was 0. For the same compound, the “Foxtail, Giant plant response rating” value [4, 17] was 0, the “Foxtail, Giant plant response rating” value [4, 13] was 10 and the “Foxtail, Giant plant response rating” value [4, 14] was 50. The “Plant response rating, Foxtail, Giant” value ([4]; Preemergence, 500 g ai/ha) was 70, the “Plant response rating, Sedge, Umbrella” value [5, 18] was 0 and the “Plant response rating, Sedge, Umbrella” value [5, 19] was 0. For the same compound, the “Plant response rating, Sedge, Umbrella” value [5, 20] was 20, the “Plant response rating, Sedge, Umbrella” value [5, 21] was 100 and the “Morningglory plant response rating” value [6, 17] was 0. The “Morningglory plant response rating” value [6, 13] was 0, the “Morningglory plant response rating” value [6, 14] was 0 and the “Plant response rating, Morningglory” value ([6]; Preemergence, 500 g ai/ha) was 0. The “Barnyardgrass plant response rating” value [7, 17] was 0, the “Barnyardgrass plant response rating” value [7, 13] was 0 and the “Barnyardgrass plant response rating” value [7, 14] was 50. The “Plant response rating, Barnyardgrass” value ([7]; Preemergence, 500 g ai/ha) was 90, the “Pigweed plant response rating” value [8, 17] was 0 and the “Pigweed plant response rating” value [8, 13] was 0. The “Crabgrass, Large plant response rating” value [9, 17] was 0, the “Crabgrass, Large plant response rating” value [9, 13] was 30 and the “Crabgrass, Large plant response rating” value [9, 14] was 40. The “Plant response rating, Crabgrass, Large” value ([9]; Preemergence, 500 g ai/ha) was 80, the “Corn plant response rating” value [10, 17] was 0 and the “Corn plant response rating” value [10, 13] was 0. For the same compound, the “Corn plant response rating” value [10, 14] was 0, the “Plant response rating, Corn” value ([10]; Preemergence, 500 g ai/ha) was 0 and the “Plant response rating, Barnyardgrass” value [11, 18] was 0. For the same compound, the “Plant response rating, Barnyardgrass” value [11, 19] was 0, the “Plant response rating, Barnyardgrass” value [11, 20] was 20 and the “Plant response rating, Barnyardgrass” value [11, 21] was 80. The “Plant response rating, Rice” value [12, 18] was 0, the “Plant response rating, Rice” value [12, 19] was 50 and the “Plant response rating, Rice” value [12, 20] was 65. The “Plant response rating, Rice” value [12, 21] was 85.
